The values below come from article PMC9227250, “Design, Synthesis and Cytotoxic Activity Evaluation of Newly Synthesized Amides-Based TMP Moiety as Potential Anticancer Agents over HepG2 Cells” (Molecules, 2022).

The subject of data set [1] is HepG2 cells. The data set can be described thus: MTT cytotoxicity assay against HepG2 cell line. The following applies: Homo sapiens, mean of three independent replicates ± SE. It is filed as cell-based. As for the experimental part: (§1) Cytotoxic activity was carried out using MTT colorimetric antiproliferative assay to investigate the effect of the prepared molecules on HepG2 as well as HL-7702 cell lines. See Section 4.3.1 in Supplementary Data.
(§2) 4.3.1. Cytotoxic activity evaluation
(§3) To measure the cytotoxic actvity of the amide derivatives 2-6e in hepatocellular carcinoma (HepG2) cell line (ATCC Cat No. HB-8065) as well as normal human liver cell line HL-7702 (ATCC Cat. No. 77402), cell viability assay was assessed using MTT assay method. Cells at density of 1 x 104 were seeded in a 96-well plate at 37 °C for 24 h under 5% CO2. After incubation, the cells were treated with different concentrations of the test schiff bases 2-6e and incubated for 24 h, then 20 µl of MTT solution at 5 mg/mL was applied and incubated for 4 h at 37 °C . Dimethyl sulphoxide (DMSO) in volume of 100 µl was added to each well to dissolve the purple formazan that had formed. The color intensity of the formazan product, which represents the growth condition of the cells, is quantified by using an ELISA plate reader (EXL 800, USA) at 450 nm absorbance. The experimental conditions were carried out with at least three replicates, and the experiments were repeated at least three times. […]

A further data set concerns HL-7702 cells. The data set can be described thus: MTT cytotoxicity assay against normal liver cell line HL-7702. Conditions: for IC50: Homo sapiens, L02, MTT assay, normal liver cell line HL-7702, mean of three independent replicates ± SE. In kind it is cell-based, human. As for the experimental part:
as §1, §2, §3

For a further data set, the target named is T1, β-tubulin (Homo sapiens, UniProt P07437+P68363).
T1 construct: […]
The data set can be described thus: Tubulin polymerization inhibition assay (Human Beta-tubulin ELISA kit). In kind it is biochemical. The following applies: for tubulin polymerization percentage inhibition: ELISA for β-tubulin, compared with untreated control cells. As to the method:
See Section 4.3.3 in Supplementary Data.
4.3.3. Tubulin inhibitions Assay […]
manufacturer’s instructions using # abcam Human Beta-tubulin simplestep ELISA Kit […]
Cell cycle analysis in HepG2 cells was investigated using fluorescent Annexin V - FITC/ PI detection kit (BioVision EZCellTM Cell Cycle Analysis Kit Catalog #K920) […]
After treatment, cells were washed twice in PBS, fixed in 70% ethanol, rinsed again with PBS. Cells were collected by centrifugation at 2000 rpm for 5 min and stained with DNA […]
The samples were immediately analyzed using Facs Calibur flow cytometer (Becton and Dickinson, Heidelberg, Germany).
Apoptosis in HepG2 cells was investigated using fluorescent Annexin V-FITC/ PI detection kit (BioVision Annexin V-FITC Apoptosis Detection Kit, Catalog #: K101) […]
(§4) immediately analyzed using FACS Calibur flow cytometer (Becton and Dickinson, […]
Caspase 3/7 in HepG2 cells was investigated using CellEvent® Caspase 3/7 Green Detection Flow Cytometry Assay Kit. Caspase 3/7 activity in HepG2 cell line was […]
CellEvent® caspase 3/7 green detection flow cytometry assay kit according to manufacturer’s directions. […]
harvested and washed with ice cold PBS, and cell lysates were prepared and […]
A general note: In an ELISA, binding on a coated surface is turned into a signal by an enzyme label.

The subject of data set [2] is HDAC1. Conditions: cited from earlier work.
The target in data set [3] is T2, HDAC1 (Homo sapiens, UniProt Q13547).
T2 construct: Briefly, HepG2 cells were trypsinized, counted and seeded; host or cells: HepG2
The data set can be described thus: In vitro HDAC1 inhibition assay (ELISA kit). In kind it is biochemical. The following applies: HepG2 cells exposed 72 h. As for the experimental part: (§5) See Section 4.3.2 in Supplementary Data.
(§6) 4.3.1. Cytotoxic activity evaluation […]
(§7) for 24 h under 5% CO2. After incubation, the cells were treated with different concentrations of the test schiff bases 2-6e and incubated for 24 h, then 20 µl of MTT […]
(§8) (DMSO) in volume of 100 µl was added to each well to dissolve the purple formazan that had formed. The color intensity of the formazan product, which represents the […]
(§9) USA) at 450 nm absorbance. The experimental conditions were carried out with at least three replicates, and the experiments were repeated at least three times.
(§10) 4.3.2. In vitro HDAC inhibition assay
(§11) HDAC isoforms (HDAC1, 2) were measured using ELISA assay kits {Mybiosource, Inc. [#MBS2020012 and #MBS2510971]} according to manufacturer's directions.
(§12) 96-well micro titer plates. Cells then were incubated in a humidified atmosphere at 37 °C for 24 h. The standards, the tested compounds, and the positive reference SAHA were diluted to designated concentrations. On the 96-well micro titer plates standard or sample was added to each well in 100 µL, and incubated at 37 °C for 2 h. The solution was aspirated and 100 µL of prepared. Detection Reagent A was added to […]
4.3.3. […]
(§13) The samples were immediately analyzed using Facs Calibur flow cytometer (Becton and Dickinson, Heidelberg, Germany). […]
as §4

The next data set addresses T3, HDAC2 (Homo sapiens, UniProt Q92769).
T3 construct: Briefly, HepG2 cells were trypsinized, counted and seeded; host or cells: HepG2
As to the kind of experiment: In vitro HDAC2 inhibition assay (ELISA kit). In kind it is biochemical. Conditions: HepG2 cells exposed 72 h. As to the method: as §5, §6, §7, §8, §9, §10, §11, §12
4.3.3. […]
as §13, §4

Data set [4] has as its system HepG2 cells. The data set can be described thus: Annexin V-FITC/PI apoptosis assay. Conditions: HepG2, IC50 concentration, 48 h. In kind it is cell-based, human. As for the experimental part: G2/M blockade is often followed by cellular apoptosis. To quantify the percentage of cellular apoptosis induced by compound 6a in HepG2 cells, Annexin V fluorescein isothiocyanate versus propidium iodide (PI) dual staining analysis was performed after treatment with compound 6a at its IC50 concentration for 48 h. The results were presented graphically in Figure 5. […] Therefore, it can be concluded that compound 6a can be considered as apoptotic inducer.
Apoptosis in HepG2 cells was investigated using fluorescent Annexin V-FITC/ PI detection kit (BioVision Annexin V-FITC Apoptosis Detection Kit, Catalog #: K101) by flow cytometry assay. See Section 4.3.5 in Supplementary Data. […]
(§14) concentration that induces 50% of maximum inhibition of HDAC isoforms (IC50) […]
(§15) 4.3.3. Tubulin inhibitions Assay
(§16) Compound 6a was evaluated for its tubulin inhibitory activity according to manufacturer’s instructions using # abcam Human Beta-tubulin simplestep ELISA Kit […]
(§17) 4.3.4. Cell cycle analysis of compound 6a
Cell cycle analysis in HepG2 cells was investigated using fluorescent Annexin V - FITC/ PI detection kit (BioVision EZCellTM Cell Cycle Analysis Kit Catalog #K920) by flow cytometry assay. HepG2 cells at a density of 2 × 10^5 per well were treated with compound 6a at its IC50 concentration for 48 h. After treatment, cells were washed twice in PBS, fixed in 70% ethanol, rinsed again with PBS. Cells were collected by centrifugation at 2000 rpm for 5 min and stained with DNA fluorochrome PI for 15 min at 37 °C in dark. The samples were immediately analyzed using Facs Calibur flow cytometer (Becton and Dickinson, Heidelberg, Germany).
4.3.5. Apoptosis assay for compound 6a […]
Caspase 3/7 in HepG2 cells was investigated using CellEvent® Caspase 3/7 Green Detection Flow Cytometry Assay Kit. Caspase 3/7 activity in HepG2 cell line was detected in the presence of compounds 6a at its IC50 concentration (µM) using CellEvent® caspase 3/7 green detection flow cytometry assay kit according to manufacturer’s directions. […]

In data set [5] the test system is HepG2 cells. The data set can be described thus: Cell cycle analysis by flow cytometry (PI). In kind it is cell-based, human. The following applies: HepG2, IC50 dose, 48 h; untreated control 7.28%.
From the text: Inhibition of tubulin assembly into microtubule and the antiproliferative effects are characterized by cell cycle arrest in the G2/M phase. […] The results in this study indicate that the newly prepared tetraamide derivative 6a cause cell cycle perturbation in the G2/M phase which is the main gauge of HDAC and tubulin inhibitors confirming the mode of action under study.
Cell cycle analysis in HepG2 cells was investigated using fluorescent Annexin V-FITC/ PI detection kit (BioVision EZCell^TM Cell Cycle Analysis Kit Catalog #K920) by flow cytometry assay. See Section 4.3.4 in Supplementary Data. […]
as §14, §15, §16, §17
Cell cycle analysis in HepG2 cells was investigated using fluorescent Annexin V - FITC/ PI detection kit (BioVision EZCellTM Cell Cycle Analysis Kit Catalog #K920) by flow cytometry assay. HepG2 cells at a density of 2 × 10^5 per well were treated with compound 6a at its IC50 concentration for 48 h. […] The samples were immediately analyzed using Facs Calibur flow cytometer (Becton and Dickinson, Heidelberg, Germany). […]
(In general: Flow cytometry measures light scatter and fluorescence of single cells or particles in a stream.)

For another data set, the system named is pan HDAC. Further details: method as in doi:10.1039/D0NJ01274B. The following applies: read-out: pan HDAC inhibitory activity IC50; cited from earlier work.

T1 sequence (P07437 whole entry): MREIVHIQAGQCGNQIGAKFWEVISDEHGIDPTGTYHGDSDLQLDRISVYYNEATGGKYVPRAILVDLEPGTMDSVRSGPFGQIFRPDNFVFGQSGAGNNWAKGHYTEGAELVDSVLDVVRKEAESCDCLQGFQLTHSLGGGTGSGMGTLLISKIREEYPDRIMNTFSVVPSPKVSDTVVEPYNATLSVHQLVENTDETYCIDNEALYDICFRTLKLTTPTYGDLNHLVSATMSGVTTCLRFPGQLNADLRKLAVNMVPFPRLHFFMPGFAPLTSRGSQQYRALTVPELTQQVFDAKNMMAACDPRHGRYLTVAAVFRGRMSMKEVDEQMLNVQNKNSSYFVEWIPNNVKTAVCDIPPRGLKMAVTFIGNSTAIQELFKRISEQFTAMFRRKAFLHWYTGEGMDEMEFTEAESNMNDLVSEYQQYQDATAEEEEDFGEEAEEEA
T1 sequence (P68363 whole entry): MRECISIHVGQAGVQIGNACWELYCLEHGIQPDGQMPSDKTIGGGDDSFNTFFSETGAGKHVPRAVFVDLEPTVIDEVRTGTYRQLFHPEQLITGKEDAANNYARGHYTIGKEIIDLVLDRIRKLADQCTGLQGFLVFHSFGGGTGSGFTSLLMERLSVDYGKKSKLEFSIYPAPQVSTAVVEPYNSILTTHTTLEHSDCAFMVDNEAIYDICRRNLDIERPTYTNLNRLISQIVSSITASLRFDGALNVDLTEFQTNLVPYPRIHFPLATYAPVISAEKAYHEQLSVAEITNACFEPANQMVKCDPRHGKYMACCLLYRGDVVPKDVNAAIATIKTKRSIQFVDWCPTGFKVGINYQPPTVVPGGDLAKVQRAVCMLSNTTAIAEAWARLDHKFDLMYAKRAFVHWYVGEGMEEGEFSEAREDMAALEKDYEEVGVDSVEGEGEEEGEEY
T3 sequence (Q92769 whole entry): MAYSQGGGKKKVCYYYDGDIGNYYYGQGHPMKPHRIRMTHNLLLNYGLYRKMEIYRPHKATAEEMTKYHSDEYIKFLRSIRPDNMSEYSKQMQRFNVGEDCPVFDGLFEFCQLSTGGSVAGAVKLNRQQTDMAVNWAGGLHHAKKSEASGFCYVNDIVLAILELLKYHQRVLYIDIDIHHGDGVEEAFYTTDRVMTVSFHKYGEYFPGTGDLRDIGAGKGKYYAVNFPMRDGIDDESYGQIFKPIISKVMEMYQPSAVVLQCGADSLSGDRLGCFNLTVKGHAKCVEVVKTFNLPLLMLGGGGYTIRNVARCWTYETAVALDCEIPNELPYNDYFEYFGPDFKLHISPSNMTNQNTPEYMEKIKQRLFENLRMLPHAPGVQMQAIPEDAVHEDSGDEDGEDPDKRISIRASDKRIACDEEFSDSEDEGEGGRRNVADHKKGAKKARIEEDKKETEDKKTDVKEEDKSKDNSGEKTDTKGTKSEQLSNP
T2 sequence (Q13547 whole entry): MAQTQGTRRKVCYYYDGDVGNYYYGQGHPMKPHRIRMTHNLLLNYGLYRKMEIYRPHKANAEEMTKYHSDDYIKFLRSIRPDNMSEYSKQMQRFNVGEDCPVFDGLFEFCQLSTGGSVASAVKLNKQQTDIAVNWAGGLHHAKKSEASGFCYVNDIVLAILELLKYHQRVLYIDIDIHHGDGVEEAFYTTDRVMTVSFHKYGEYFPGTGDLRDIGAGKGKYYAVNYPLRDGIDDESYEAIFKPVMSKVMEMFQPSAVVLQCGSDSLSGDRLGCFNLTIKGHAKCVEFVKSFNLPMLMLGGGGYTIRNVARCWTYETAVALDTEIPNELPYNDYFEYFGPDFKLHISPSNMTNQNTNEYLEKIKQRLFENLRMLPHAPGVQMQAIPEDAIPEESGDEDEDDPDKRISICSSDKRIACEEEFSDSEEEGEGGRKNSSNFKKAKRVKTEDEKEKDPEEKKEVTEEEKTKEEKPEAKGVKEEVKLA

Regarding `COc1ccc(/C=C\c2cc(OC)c(OC)c(OC)c2)cc1O` [CA-4, combretastatin A-4, reference compound], the IC50 in the data set with HepG2 cells [1] was found to be 540 ± 40 nM; in the data set with HL-7702 cells it was 8860 ± 670 nM. Besides, the “tubulin polymerization percentage inhibition” value on β-tubulin is on record as 88.72%.
For the compound `Nc1ccccc1NC(=O)c1ccc(C(C(=O)Nc2ccccc2)C(=O)Nc2ccccc2)cc1` [III], in the data set on HDAC1 [2], the “fold potency for HDAC1 compared with HDAC2” value was 10 fold and the “fold potency for HDAC1 compared with HDAC3” value is 20 fold.
The compound `COc1cc(C(=O)NC(=Cc2ccc(N(C)C)cc2)C(=O)NNC(=O)/C(=C/c2ccco2)NC(=O)c2cc(OC)c(OC)c(OC)c2)cc(OC)c1OC` [Compound 6c, N-((1Z)-3-(2-(3-(4-(dimethylamino)phenyl)-2-(3,4,5-trimethoxybenzamido)acryloyl)hydrazinyl)-1-(furan-2-yl)-3-oxoprop-1-en-2-yl)-3,4,5-trimethoxybenzamide] returned a melting point of 215 to 217 °C. This compound showed an IC50 in the data set on HepG2 cells [1] of 1120 ± 120 nM. The compound also showed an IC50 with HL-7702 cells of 9880 ± 140 nM.
Compound `COc1cc(C(=O)NC(=Cc2ccc(Cl)cc2)C(=O)NNC(=O)/C(=C/c2ccco2)NC(=O)c2cc(OC)c(OC)c(OC)c2)cc(OC)c1OC` [Compound 6a, N-((1Z)-3-(2-(3-(4-chlorophenyl)-2-(3,4,5-trimethoxybenzamido)acryloyl)hydrazinyl)-1-(furan-2-yl)-3-oxoprop-1-en-2-yl)-3,4,5-trimethoxybenzamide] registered a melting point of 209 to 211 °C. This compound showed an IC50 on HDAC1 [3] of 47 nM. In the data set with HepG2 cells [1], the IC50 was 650 ± 30 nM. In the data set on HL-7702 cells (HL-7702 (printed HL-7022) versus HepG2), the “selectivity ratio toward normal liver cell line” value was determined as 14.8. Moreover, in the data set with HL-7702 cells, half-maximal inhibition (IC50) was put at 9620 ± 230 nM. This compound also gave an IC50 against HDAC2 of 86 nM. Moreover, in the data set on HepG2 cells [4] (untreated control 0.13%), the “late apoptotic cell percentage” value was 12.08%. Further, in the data set on HepG2 cells [4] (untreated control 0.52%), the “early apoptotic cell percentage” value is on record as 23.41%. Besides, the total apoptosis percentage with HepG2 cells [4] (untreated control 1.59%) amounted to 37.51%. Also, in the data set on HepG2 cells [5], the “cells in G2/M phase” value was found to be 39.09%. In addition, the “tubulin polymerization percentage inhibition” value on β-tubulin is on record as 66.39%. For the same compound, on β-tubulin (β-tubulin ELISA), half-maximal inhibition (IC50) required 270 nM.
As for `Nc1ccccc1NC(=O)c1cnccn1` [BG45], the IC50 in the data set with pan HDAC is 5510 nM.
For `Cc1ccc(/C=N/NC(=O)c2ccc(NC(=O)c3cccnc3)cc2)cc1` [IV], the IC50 with pan HDAC is 4650 nM.
In turn, `COc1cc(C(=O)NC(=Cc2ccc(C#N)cc2)C(=O)NNC(=O)/C(=C/c2ccco2)NC(=O)c2cc(OC)c(OC)c(OC)c2)cc(OC)c1OC` [Compound 6b, N-((1Z)-3-(2-(3-(4-cyanophenyl)-2-(3,4,5-trimethoxybenzamido)acryloyl)hydrazinyl)-1-(furan-2-yl)-3-oxoprop-1-en-2-yl)-3,4,5-trimethoxybenzamide] showed a melting point of 223 to 225 °C. This compound registered a 50% inhibitory concentration (IC50) in the data set on HepG2 cells [1] of 920 ± 100 nM. In the data set on HL-7702 cells, this compound came in with an IC50 of 11100 ± 180 nM.

In general, IC50 refers to the concentration that gives 50% inhibition. The melting point is the temperature, or range, at which the solid turns liquid.
